Measured values as given in paper PMC3211034, “Optimal Production and Biochemical Properties of a Lipase from Candida albicans” (International Journal of Molecular Sciences, 2011).

Tests used:
[1] = target: T1, CaLIP10 (lipase 10 from Candida albicans; product of lip10-dm) (Candida albicans, UniProt Q9P4E5); assay: spectrophotometric release of p-nitrophenol at […] nm; type: biochemical; conditions: 2 mM substrate, 50 mM Tris-HCl pH 8.0, 25 °C
T1 construct: mature protein without signal peptide, cloned from genomic DNA; CTG-Ser codons 210 and 378 recoded to TCT, so the product keeps native Ser210 and Ser378 (no amino-acid change); secreted from Pichia pastoris X33 with pGAPZalphaA; about 50 kDa by SDS-PAGE

[2] = target: T1, CaLIP10 (lipase 10 from Candida albicans; product of lip10-dm); assay: clear zone on tributyrin-emulsion YPD plates, secreting P. pastoris transformants; type: cell-based; conditions: 1% tributyrin emulsion; X-33 and empty-vector control

T1 sequence (Q9P4E5 17-465): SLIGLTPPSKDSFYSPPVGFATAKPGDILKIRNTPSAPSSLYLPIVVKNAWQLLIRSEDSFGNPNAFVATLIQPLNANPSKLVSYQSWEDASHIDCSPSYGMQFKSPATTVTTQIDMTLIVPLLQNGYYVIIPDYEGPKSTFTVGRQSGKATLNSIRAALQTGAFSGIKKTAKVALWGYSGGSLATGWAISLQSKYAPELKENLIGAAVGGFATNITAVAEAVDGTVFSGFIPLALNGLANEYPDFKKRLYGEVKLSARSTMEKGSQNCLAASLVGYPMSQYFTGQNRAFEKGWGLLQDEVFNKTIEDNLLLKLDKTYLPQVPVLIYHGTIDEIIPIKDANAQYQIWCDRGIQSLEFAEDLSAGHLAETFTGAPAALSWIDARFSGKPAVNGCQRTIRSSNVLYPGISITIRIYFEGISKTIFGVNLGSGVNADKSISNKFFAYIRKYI

CCCCCCCC(=O)Oc1ccc([N+](=O)[O-])cc1 [p-nitrophenol caprylate]
spectrophotometric release of p-nitrophenol at 405 nm [1]: The lipase activity was determined spectrophotometrically using p-nitrophenol caprylate as substrate.

CCCC(=O)OCC(COC(=O)CCC)OC(=O)CCC [tributyrin]
clear zone on tributyrin-emulsion YPD plates, secreting P. pastoris transformant [2]: a clear zone was formed around wild type lip10 and mutated lip10-dm
